# Measurements: US20230339891A1, “URACIL DERIVATIVES AS MER-AXL INHIBITORS” (BRISTOL-MYERS SQUIBB COMPANY, priority 2018, published 2023)
# Columns and labels:
# GST-MERTK 578-872 = GST-MERTK 578-872 (Homo sapiens (Human), UniProt Q12866); experiment: MERTK kinase homogeneous time resolved fluorescence (HTRF) binding assay; details: 1 nM kinase, fluorescein-labeled kinase tracer at Kd, 60 minutes at room temperature; read-out: Mer HTRF IC50
# Method: (§1) MERTK, AXL, TYRO3 Kinase Homogeneous Time Resolved Fluorescence (HTRF) Assay
# (§2) Assays were performed in black, flat-bottom, 1536-well plates. The reactions were incubated at room temperature for 60 minutes, following which the HTRF signals, ratio of fluorescence intensities at emission wavelengths for fluorescein acceptor (520 nm) and terbium donor (495 nm), the 520/495 ratio, were measured on the Envision Plate reader. Inhibition data were calculated from the 520/495 ratio generated by the no protein control reactions for 100% inhibition and vehicle-only reactions for 0% inhibition, and dose response curves generated to determine the concentration required for inhibiting 50% of the HTRF signal (IC50). Compounds were dissolved at 10 mM in dimethylsulfoxide (DMSO) and evaluated at eleven concentrations.
# HIS-AXL 473-End = HIS-AXL 473-End (Homo sapiens (Human), UniProt P30530); experiment: AXL kinase homogeneous time resolved fluorescence (HTRF) binding assay; details: 1 nM kinase, fluorescein-labeled kinase tracer at Kd, 60 minutes at room temperature
# Method: as §1, §2
# Sequence of HIS-AXL 473-End (P30530 473-894): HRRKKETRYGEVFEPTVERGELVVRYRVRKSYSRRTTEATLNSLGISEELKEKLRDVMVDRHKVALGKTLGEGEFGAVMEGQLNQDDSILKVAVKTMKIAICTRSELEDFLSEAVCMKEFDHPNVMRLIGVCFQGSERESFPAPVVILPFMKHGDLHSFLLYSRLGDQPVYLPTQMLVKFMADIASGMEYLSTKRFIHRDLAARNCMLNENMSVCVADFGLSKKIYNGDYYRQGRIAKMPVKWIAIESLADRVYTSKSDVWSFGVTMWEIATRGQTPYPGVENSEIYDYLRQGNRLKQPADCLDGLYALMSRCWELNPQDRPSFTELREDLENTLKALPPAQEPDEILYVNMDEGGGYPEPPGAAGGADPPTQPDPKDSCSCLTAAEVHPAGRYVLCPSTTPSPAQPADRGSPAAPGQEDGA
# Sequence of GST-MERTK 578-872 (Q12866 578-872): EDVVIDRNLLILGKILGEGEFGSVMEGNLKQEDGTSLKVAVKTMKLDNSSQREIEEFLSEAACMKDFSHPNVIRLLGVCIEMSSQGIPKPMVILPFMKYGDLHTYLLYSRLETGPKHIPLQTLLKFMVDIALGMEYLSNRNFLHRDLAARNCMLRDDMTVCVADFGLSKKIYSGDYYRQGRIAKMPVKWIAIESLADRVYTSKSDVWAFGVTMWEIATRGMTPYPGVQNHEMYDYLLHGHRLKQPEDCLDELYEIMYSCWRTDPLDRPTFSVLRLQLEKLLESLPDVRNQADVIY
SMILES,IC50 (GST-MERTK 578-872) [nM],IC50 (HIS-AXL 473-End) [nM]
"CC(C)n1cc(C(=O)Nc2ccc(Oc3ccnc(Nc4ccc(C(=O)NCC(C)(C)O)cn4)c3)c(F)c2)c(=O)n(-c2ccc(F)cc2)c1=O [Example 92, N-(3-Fluoro-4-{[2-({5-[(2-hydroxy-2-methylpropyl)carbamoyl]pyridin-2-yl}amino)pyridin-4-yl]oxy}phenyl)-3-(4-fluorophenyl)-2,4-dioxo-1-(propan-2-yl)-1,2,3,4-tetrahydropyrimidine-5-carboxamide]",1.9,0.4
CC(C)n1cc(C(=O)Nc2ccc(Oc3ccnc(Nc4ccc(C(=O)NCCN5CCOCC5)cn4)c3)c(F)c2)c(=O)n(-c2ccc(F)cc2)c1=O [Example 93],1.6,0.4
CC(C)n1cc(C(=O)Nc2ccc(Oc3ccnc(Nc4ccc(C(=O)NCC(F)F)cn4)c3)c(F)c2)c(=O)n(-c2ccc(F)cc2)c1=O [Example 95],4.3,0.8
CC(C)n1cc(C(=O)Nc2ccc(Oc3ccnc(Nc4ccc(C(=O)NS(=O)(=O)C(C)C)cn4)c3)c(F)c2)c(=O)n(-c2ccc(F)cc2)c1=O [Example 96],2.9,0.7
"CC(C)n1cc(C(=O)Nc2ccc(Oc3ccnc(Nc4ccc(C(=O)N(C)C)c(N5CCN(S(C)(=O)=O)CC5)n4)c3)c(F)c2)c(=O)n(-c2ccc(F)cc2)c1=O [Example 97, N-{4-[(2-{[5-(Dimethylcarbamoyl)-6-(4-methanesulfonylpiperazin-1-yl)pyridin-2-yl]amino}pyridin-4-yl)oxy]-3-fluorophenyl}-3-(4-fluorophenyl)-2,4-dioxo-1-(propan-2-yl)-1,2,3,4-tetrahydropyrimidine-5-carboxamide]",1,0.3
"CC(C)n1cc(C(=O)Nc2ccc(Oc3ccnc(Nc4ccc(S(=O)(=O)N(C)C)c(N(C)C)n4)c3)c(F)c2)c(=O)n(-c2ccc(F)cc2)c1=O [Example 98, N-{4-[(2-{[6-(dimethylamino)-N,N-(dimethylsulfamoyl)pyridin-2-yl]amino}pyridin-4-yl)oxy]-3-fluorophenyl}-3-(4-fluorophenyl)-2,4-dioxo-1-(propan-2-yl)-1,2,3,4-tetrahydropyrimidine-5-carboxamide]",22,36
"CC(C)n1cc(C(=O)Nc2ccc(Oc3ccnc(Nc4ccc(S(=O)(=O)N(C)C)c(N5CCN(S(C)(=O)=O)CC5)n4)c3)c(F)c2)c(=O)n(-c2ccc(F)cc2)c1=O [Example 99, N-{4-[(2-{[5-(dimethylsulfamoyl)-6-(4-methanesulfonylpiperazin-1-yl)pyridin-2-yl]amino}pyridin-4-yl)oxy]-3-fluorophenyl}-3-(4-fluorophenyl)-2,4-dioxo-1-(propan-2-yl)-1,2,3,4-tetrahydropyrimidine-5-carboxamide]",6.4,7.4
COC(=O)N1CCN(c2nc(Nc3cc(Oc4ccc(NC(=O)c5cn(C(C)C)c(=O)n(-c6ccc(F)cc6)c5=O)cc4F)ccn3)ccc2S(=O)(=O)N(C)C)CC1 [Example 100],2.1,3.1
"CC(C)n1cc(C(=O)Nc2ccc(Oc3ccnc(Nc4ccnc(N5CCN(S(C)(=O)=O)CC5)n4)c3)c(F)c2)c(=O)n(-c2ccc(F)cc2)c1=O [Example 102, N-{3-fluoro-4-[(2-{[2-(4-methanesulfonylpiperazin-1-yl)pyrimidin-4-yl]amino}pyridin-4-yl)oxy]phenyl}-3-(4-fluorophenyl)-2,4-dioxo-1-(propan-2-yl)-1,2,3,4-tetrahydropyrimidine-5-carboxamide]",0.5,0.9
"CC(C)n1cc(C(=O)Nc2ccc(Oc3ccnc(Nc4ccnc(N5CCCC5)n4)c3)c(F)c2)c(=O)n(-c2ccc(F)cc2)c1=O [Example 103, N-{3-fluoro-4-[(2-{[2-(pyrrolidin-1-yl)pyrimidin-4-yl]amino}pyridin-4-yl)oxy]phenyl}-3-(4-fluorophenyl)-2,4-dioxo-1-(propan-2-yl)-1,2,3,4-tetrahydropyrimidine-5-carboxamide]",0.6,0.7
"CC(C)n1cc(C(=O)Nc2ccc(Oc3ccnc(Nc4ccnc(N5CCCC5)n4)c3)c(F)c2)c(=O)n(C23CC(C2)C3)c1=O [Example 104, 3-(Bicyclo[1.1.1]pentan-1-yl)-N-(3-fluoro-4-((2-((2-(pyrrolidin-1-yl)pyrimidin-4-yl)amino)pyridin-4-yl)oxy)phenyl)-1-isopropyl-2,4-dioxo-1,2,3,4-tetrahydropyrimidine-5-carboxamide]",3.9,3.1
O=C(Nc1ccc(Oc2ccnc(Nc3ccnc(N4CCCC4)n3)c2)c(F)c1)c1cn(C2CC2)c(=O)n(-c2ccc(F)cc2)c1=O [Example 105],1.4,2.3
CC(C)n1cc(C(=O)Nc2ccc(Oc3ccnc(Nc4ccnc(N5CCCC5)n4)c3)c(F)c2)c(=O)n(Cc2ccccc2)c1=O [Example 106],8.2,8.2
CC(C)Cn1c(=O)c(C(=O)Nc2ccc(Oc3ccnc(Nc4ccnc(N5CCCC5)n4)c3)c(F)c2)cn(C(C)C)c1=O [Example 107],5.4,11
CC(C)n1cc(C(=O)Nc2ccc(Oc3ccnc(Nc4ccnc(N5CCCC5)n4)c3)c(F)c2)c(=O)n(C(C)C)c1=O [Example 108],9.1,3.8
CC(C)n1cc(C(=O)Nc2ccc(Oc3ccnc(Nc4ccnc(N5CCCC5)n4)c3)c(F)c2)c(=O)n(C2CCCCC2)c1=O [Example 109],70,62
"CS(=O)(=O)C1CCN(c2nccc(Nc3cc(Oc4ccc(NC(=O)c5cn(C6CC6)c(=O)n(-c6ccc(F)cc6)c5=O)cc4F)ccn3)n2)CC1 [Example 112, 1-cyclopropyl-N-{3-fluoro-4-[(2-{[2-(4-methanesulfonylpipedidin-1-yl)pyrimidin-4-yl]amino}pyridin-4-yl)oxy]phenyl}-3-(4-fluorophenyl)-2,4-dioxo-1,2,3,4-tetrahydropyrimidine-5-carboxamide]",4.1,0.8
CC(C)n1cc(C(=O)Nc2ccc(Oc3ccnc(Nc4ccnc(N5CCC(S(C)(=O)=O)CC5)n4)c3)c(F)c2)c(=O)n(C23CC(C2)C3)c1=O [Example 113],2.8,4.8
CC(C)n1cc(C(=O)Nc2ccc(Oc3ccnc(Nc4ccnc(N5CCC(S(C)(=O)=O)CC5)n4)c3)c(F)c2)c(=O)n(-c2ccc(F)cc2)c1=O [Example 114],1.4,0.6
"Cc1cnc(Nc2ccnc(N3CCC(S(C)(=O)=O)CC3)n2)cc1Oc1ccc(NC(=O)c2cn(C(C)C)c(=O)n(-c3ccccc3)c2=O)cc1 [Example 115, N-{4-[(2-{[2-(4-methanesulfonylpiperidin-1-yl)pyrimidin-4-yl]amino}-5-methylpyridin-4-yl)oxy]phenyl}-2,4-dioxo-3-phenyl-1-(propan-2-yl)-1,2,3,4-tetrahydropyrimidine-5-carboxamide]",810,41
"CC(C)n1cc(C(=O)Nc2ccc(Oc3ccnc(Nc4ccc(C#N)c(N5CCN(S(C)(=O)=O)CC5)n4)c3)c(F)c2)c(=O)n(-c2ccc(F)cc2)c1=O [Example 116, N-{4-[(2-{[5-cyano-6-(4-methanesulfonylpiperazin-1-yl)pyridin-2-yl]amino}pyridin-4-yl)oxy]-3-fluorophenyl}-3-(4-fluorophenyl)-2,4-dioxo-1-(propan-2-yl)-1,2,3,4-tetrahydropyrimidine-5-carboxamide]",1,1.5
CC(C)n1cc(C(=O)Nc2ccc(Oc3ccnc(Nc4ccc(C#N)c(N5CCCC5)n4)c3)c(F)c2)c(=O)n(-c2ccc(F)cc2)c1=O [Example 117],2.8,3
CC(C)n1cc(C(=O)Nc2ccc(Oc3ccnc(Nc4ccc(C#N)c(N5CC[C@H](O)C5)n4)c3)c(F)c2)c(=O)n(-c2ccc(F)cc2)c1=O [Example 118],1.5,1.4
COC(=O)N1CCN(c2nc(Nc3cc(Oc4ccc(NC(=O)c5cn(C(C)C)c(=O)n(-c6ccc(F)cc6)c5=O)cc4F)ccn3)ccc2C#N)CC1 [Example 119],1.5,4.2
CC(C)n1cc(C(=O)Nc2ccc(Oc3ccnc(Nc4ccc(C#N)c(N5CCC(O)CC5)n4)c3)c(F)c2)c(=O)n(-c2ccc(F)cc2)c1=O [Example 120],1.6,1.1
COC1CCN(c2nc(Nc3cc(Oc4ccc(NC(=O)c5cn(C(C)C)c(=O)n(-c6ccc(F)cc6)c5=O)cc4F)ccn3)ccc2C#N)CC1 [Example 121],2.4,3.9
CC(C)n1cc(C(=O)Nc2ccc(Oc3ccnc(Nc4ccc(C#N)c(N5CCC(O)(C(F)(F)F)CC5)n4)c3)c(F)c2)c(=O)n(-c2ccc(F)cc2)c1=O [Example 122],6,9.8
CC(C)n1cc(C(=O)Nc2ccc(Oc3ccnc(Nc4ccc(C#N)c(N5CCC(S(C)(=O)=O)CC5)n4)c3)c(F)c2)c(=O)n(-c2ccc(F)cc2)c1=O [Example 123],1.8,1.4
CC(C)n1cc(C(=O)Nc2ccc(Oc3ccnc(Nc4ccc(C#N)c(N5CCC(S(C)(=O)=O)C5)n4)c3)c(F)c2)c(=O)n(-c2ccc(F)cc2)c1=O (stereo not drawn) [Example 124],2.9,2
CC(C)n1cc(C(=O)Nc2ccc(Oc3ccnc(Nc4ccc(C#N)c(N5CCN(S(C)(=O)=O)[C@H](C)C5)n4)c3)c(F)c2)c(=O)n(-c2ccc(F)cc2)c1=O [Example 125],2.2,1.3
